Experimental data: US5356880A, “Glycyrrhetinic acid derivatives” (priority 1991, dated 1994)
Read-outs that look alike come from different tables or passages of the source.

Experiments:
influenza A virus = conditions: cited from earlier work
influenza B virus = conditions: cited from earlier work
AIDS virus (HIV) = conditions: cited from earlier work
HSV (UV-238 Strain) = experiment: Action on HSV (UV-238 strain), CPE inhibition, TCID50; format: cell-based; conditions: read-out: Antiviral Activity (ΔTCID50); for log reduction at 1 µg/mL: 1 μg/ml; for log reduction at 5 µg/mL: 5 μg/ml; for log reduction at 25 µg/mL: 25 μg/ml
GMK cells [1] = experiment: Cytotoxicity (HSV UV-238 strain test), microscopic
HSV-1 (Miyama strain) [2] = experiment: In vitro antiviral action on cells infected with HSV-1 (Miyama strain), CPE inhibition, TCID50; format: cell-based, Herpes simplex virus type 1; conditions: read-out: Antiviral Activity (ΔTCID50); for log reduction at 5 µg/mL: 5 μg/ml; for log reduction at 25 µg/mL: 25 μg/ml
GMK cells [3] = test system: GMK cells
[4] = Acute toxicity testing, oral, mice (LD50, Litchfield-Willcoxon); conditions: mouse, in vivo, ICR male mice, 7 days observation
Text: The compounds to be tested in the form of a 2% aqueous solution of Tween 80 were orally administrated to ICR male mice (weights: 24-30 g), five for each group.

HSV-2 (UW-268 strain) = experiment: microbe, parasite or virus in culture; format: cell-based, Herpes simplex virus type 2; conditions: Human alphaherpesvirus 2, Vero, read-out: Antiviral Activity (ΔTCID50)
[5] = test system: influenza viruses (A/PR/8 strain); experiment: microbe, parasite or virus in culture; format: cell-based, influenza virus A/PR/8; conditions: unidentified influenza virus, PR/8, MDCK, read-out: Antiviral Activity (ΔTCID50)
[6] = test system: vaccinia viruses (D1E strain); experiment: microbe, parasite or virus in culture; format: cell-based; conditions: Orthopoxvirus vaccinia, Vero, read-out: Antiviral Activity (ΔTCID50)
HSV-1 (KOS strain) = experiment: microbe, parasite or virus in culture; format: cell-based, Herpes simplex virus type 1; conditions: Human alphaherpesvirus 1, Vero, read-out: Antiviral Activity (ΔTCID50)
[7] = test system: influenza viruses (A/PR/8 strain); experiment: microbe, parasite or virus in culture; format: cell-based, influenza virus A/PR/8; conditions: unidentified influenza virus, read-out: Antiviral Activity (ΔTCID50)
HSV-1 (Miyama strain) [8] = experiment: In vivo antiviral action: prolongation of life of mice infected with HSV-1; parameters: species or system BALB/c male mice; conditions: abdominal route, once a day, control 6.1 ± 0.6
Text: BALB/c male mice of three weeks old, 10 for each group, were abdominally seeded with an infectious amount, 10LD50, of HSV-1(Miyama strain). One hour later and over six days after the next day, once a day, Compound (5) referred to in Table 1 was continuously administrated to each animal via an abdominal route.

[9] = Safety / cytotoxicity, general statement
herpes simplex virus = experiment: Antiviral activity, general statement
[10] = Human alphaherpesvirus 1, 1 μg/ml, GMK cells
[11] = Human alphaherpesvirus 1, GMK cells

Compound	log reduction at 1 µg/mL (HSV (UV-238 Strain))	log reduction at 5 µg/mL (HSV (UV-238 Strain))	log reduction at 25 µg/mL (HSV (UV-238 Strain))	log reduction at 1 µg/mL (HSV-1 (Miyama strain) [2]; [10])	log reduction at 5 µg/mL (HSV-1 (Miyama strain) [2]; [11])	log reduction at 25 µg/mL (HSV-1 (Miyama strain) [2]; [11])	magnitude of cytotoxicity (GMK cells [3]; 1 μg/ml)	magnitude of cytotoxicity (GMK cells [3]; 5 μg/ml)	other results
CC(N)C12CC3CC(CC(C3)C1)C2 (racemic) [remantadine]									efficacy against influenza A virus (influenza A virus): efficacious against influenza A virus; efficacy against influenza B virus (influenza B virus): not against influenza B virus
Cc1cn([C@H]2C[C@H](N=[N+]=[N-])[C@@H](CO)O2)c(=O)[nH]c1=O [AZT]									effect on AIDS (AIDS virus (HIV)): delay the development of AIDS, but cannot accelerate healing
NC12CC3CC(CC(C3)C1)C2 [Amantadine]									efficacy against influenza A virus (influenza A virus): efficacious against influenza A virus; efficacy against influenza B virus (influenza B virus): not against influenza B virus
Nc1ncnc2c1ncn2[C@@H]1O[C@H](CO)[C@@H](O)[C@@H]1O [Ara-a, reference compound]	1.1	1.7	2.6	1.2	1.5	2.5	-		magnitude of cytotoxicity (GMK cells [1]; 1 μg/ml): -
CC1(C)[C@@H](OC(=O)CCC(=O)O)CC[C@]2(C)[C@H]3C(=O)C=C4[C@@H]5C[C@@](C)(C(=O)O)CC[C@]5(C)CC[C@@]4(C)[C@]3(C)CC[C@@H]12 [Carbenoxolone, reference compound]	0.2	0.2	2.2	0.2	0.3	2.4			
COc1ccccc1N1CCN(C(=O)[C@@]2(C)CC[C@]3(C)CC[C@]4(C)C(=CC[C@@H]5[C@@]6(C)CC[C@H](O[C@@H]7O[C@H](CO)[C@@H](O)[C@H](O)[C@H]7O)C(C)(C)[C@@H]6CC[C@]54C)[C@@H]3C2)CC1 [Comp. Ex. 25, 1-(3β-(β-D-glucopyranosyloxy)-18β-olean-12-en-30-oyl)-4-(2-methoxyphenyl)piperazine]					> 3	> 3.56	-	-	LD50 at 168 h [4]: > 1000 mg/kg; log reduction at 1 µg/mL (HSV-2 (UW-268 strain)): 1.85; log reduction at 5 µg/mL (HSV-2 (UW-268 strain)): 2.92; log reduction at 25 µg/mL (HSV-2 (UW-268 strain)): > 3.3; log reduction at 1 µg/mL [5]: 1.31; log reduction at 5 µg/mL [5]: 1.86; log reduction at 25 µg/mL [5]: 2.22; log reduction at 1 µg/mL [6]: 1.7; log reduction at 5 µg/mL [6]: 2.67; log reduction at 25 µg/mL [6]: 2.53; log reduction at 1 µg/mL (HSV-1 (KOS strain)): 2.04; log reduction at 5 µg/mL (HSV-1 (KOS strain)): > 3.19; log reduction at 25 µg/mL (HSV-1 (KOS strain)): > 3.31; log reduction at 1 µg/mL (HSV-1 (Miyama strain) [2]; Human alphaherpesvirus 1, GMK): 1.86; magnitude of cytotoxicity (GMK cells [3]; 25 μg/ml): ±
O=c1[nH]cnc2c1ncn2[C@H]1CC[C@@H](CO)O1 [DDI]									effect on AIDS (AIDS virus (HIV)): delay the development of AIDS, but cannot accelerate healing
NC(=O)c1ncn([C@@H]2O[C@H](CO)[C@@H](O)[C@H]2O)n1 [Ribavirin, reference compound]									log reduction at 1 µg/mL ([7]; PR/8, 1 μg/ml, MDCK cells): 0.8; log reduction at 5 µg/mL ([7]; PR/8, 5 μg/ml, MDCK cells): 1.8; log reduction at 20 µg/mL ([7]; PR/8, 20 μg/ml, MDCK cells): 3.2; magnitude of cytotoxicity (MDCK cells; 1 μg/ml): -; magnitude of cytotoxicity (MDCK cells; 5 μg/ml): -; magnitude of cytotoxicity (MDCK cells; 20 μg/ml): -
COc1ccccc1N1CCN(C(=O)[C@@]2(C)CC[C@]3(C)CC[C@]4(C)C(=CC[C@@H]5[C@@]6(C)CC[C@H](OC(=O)/C=C\C(=O)O)C(C)(C)[C@@H]6CC[C@]54C)[C@@H]3C2)CC1 [Table 1, Comp. (5), 1-[3β-(3-carboxy-cis-propenoyloxy)-18β-olean-12-en-30-oyl]-4-(2-methoxyphenyl)piperazine]	1.3	2.2	2.8	1	2.1	3.1	-	-	Mean Survival Days (average ± standard error) (HSV-1 (Miyama strain) [8]; 5 mg/Kg): 7.9 ± 1.1 days; Mean Survival Days (average ± standard error) (HSV-1 (Miyama strain) [8]; 10 mg/Kg, p < 0.05 (t-Test)): 8.6 ± 0.7 days; Mean Survival Days (average ± standard error) (HSV-1 (Miyama strain) [8]; 20 mg/Kg, p < 0.001 (t-Test)): 11.2 ± 1.1 days; magnitude of cytotoxicity (GMK cells [1]; 1 μg/ml): -; magnitude of cytotoxicity (GMK cells [1]; 5 μg/ml): -; magnitude of cytotoxicity (GMK cells [1]; 25 μg/ml): -; magnitude of cytotoxicity (GMK cells [3]; 25 μg/ml): -; log reduction at 1 µg/mL ([7]; PR/8, MDCK): 0.8; log reduction at 5 µg/mL ([7]; PR/8, MDCK): 1.2; log reduction at 20 µg/mL ([7]; PR/8, MDCK): 2.1; magnitude of cytotoxicity (MDCK cells): -
COc1ccccc1N1CCN(C(=O)[C@@]2(C)CC[C@]3(C)CC[C@]4(C)C(=CC[C@@H]5[C@@]6(C)CC[C@H](O)C(C)(C)[C@@H]6CC[C@]54C)[C@@H]3C2)CC1 [Table 1, Comp. (9), 1-(3β-hydroxy-18β-olean-12-en-30-oyl)-4-(2-methoxyphenyl) piperazine]	0.7	1.3	2.5	1.3	1.2		-		magnitude of cytotoxicity (GMK cells [1]; 1 μg/ml): -; log reduction at 1 µg/mL ([7]; PR/8, MDCK): 0.5; log reduction at 5 µg/mL ([7]; PR/8, MDCK): 1; log reduction at 20 µg/mL ([7]; PR/8, MDCK): 1.3
CC(C)=CCCC(C)=CCCC(C)=CCN1CCN(C(=O)[C@@]2(C)CC[C@]3(C)CC[C@]4(C)C(=CC[C@@H]5[C@@]6(C)CC[C@H](OC(=O)/C=C\C(=O)O)C(C)(C)[C@@H]6CC[C@]54C)[C@@H]3C2)CC1 [Table 1, Comp. (10)]				0.7	2	1.9	-		
COc1ccccc1N1CCN(C(=O)[C@@]2(C)CC[C@]3(C)CC[C@]4(C)C(=CC[C@@H]5[C@@]6(C)CC[C@H](OC(=O)CCC(=O)O)C(C)(C)[C@@H]6CC[C@]54C)[C@@H]3C2)CC1 [Table 1, Comp. (13), 1-[3β-(3-carboxypropanoyloxy)-18β-olean-12-en-30-oyl]-4-(2-methoxyphenyl)piperazine]	0.9	1.4	2.5	0.8	2.6	2.5	-	-	magnitude of cytotoxicity (GMK cells [1]; 1 μg/ml): -; magnitude of cytotoxicity (GMK cells [1]; 5 μg/ml): -; safety / cytotoxic action [9]: of greatly safety; log reduction at 1 µg/mL ([7]; PR/8, MDCK): 0.4; log reduction at 5 µg/mL ([7]; PR/8, MDCK): 0.6; log reduction at 20 µg/mL ([7]; PR/8, MDCK): 1.5; antiviral activity (herpes simplex virus): a particularly high antiviral activity
CC1(C)[C@@H](OCC(=O)O)CC[C@]2(C)[C@H]3CC=C4[C@@H]5C[C@@](C)(C(=O)O)CC[C@]5(C)CC[C@@]4(C)[C@]3(C)CC[C@@H]12 [Table 1, Comp. (15), disodium-3β-carboxymethoxy-18β-olean-12-en-30-oate]				0	0.3	1	-	-	
CC1(C)[C@@H](OCCC(=O)O)CC[C@]2(C)[C@H]3CC=C4[C@@H]5C[C@@](C)(C(=O)O)CC[C@]5(C)CC[C@@]4(C)[C@]3(C)CC[C@@H]12 [Table 1, Comp. (18), disodium-3β-(2-carboxyethoxy)-18β-olean-12-en-30-oate]				0.7	1.6	1.2	-	-	
